Data taken from patent US8399495B2, “Talarazole metabolites” (Stiefel Laboratories, Inc., priority 2006, dated 2013).

Experiments:
Type in all cases: in vivo
[1] = Excretion of radioactivity (mass balance), human; conditions: male, 0-288, oral 4 mg
Description: (§1) Mouse, rat, dog and human were the species used for the safety evaluations of talarozole. More specifically, the disposition of ^14C-labeled talarozole was examined in mice, rats, dogs and humans after oral administration to provide information regarding the absorption, metabolism and excretion of talarozole.
(§2) Male and female CD-1 mice (19-29 g, n=3/sex/timepoint for blood sampling, n=3/sex for mass balance), Sprague Dawley rats (0.205-0.237 kg, n=3/sex/timepoint for blood sampling, n=3/sex for mass balance) and beagle dogs (7-12 kg, n=3) were given a single oral dose of ^14C-labeled talarozole in 20% hydroxyl propyl B-cyclodextrin at 5 mg/kg. Healthy human male volunteers (76.6-107.9 kg, n=5) were dosed with a single oral dose of 4 mg ^14C-labeled rambazole in ethanol. Blood samples were collected at selected timepoints after dosing and plasma was prepared. Urine and feces were collected for 2, 7 and 8 days. For the human study, up to 288 hours post-dose and semen samples were obtained 2 and 4 hours post-dose. Radioactivity in various matrices were measured by liquid scintillation counting (LSC). Select plasma, urine and fecal samples were subjected to metabolite radioprofiling and characterization, and in the human study, semen samples. Metabolite radioprofiling was accomplished using HPLC with fraction collection followed by solid scintillation counting (Packard TopCount—see representative HPLC run data below). Radioactivity peaks were integrated and the percent distribution of individual metabolites in each sample was determined. Metabolite characterization and identification were accomplished by LC/MS (Finnigan MAT LCQ in positive or negative ESI mode) in conjunction with an appropriate radioactive monitor (RAM). For all species, plasma, urine and fecal samples were pooled across animals and analyzed. Plasma was analyzed at several time-points out to 24 hours. Urine was analyzed over one time-interval (0-24 hours for mouse, 0-48 hours for rat, 0-72 hours for dog, and for in the human study, 0-12, 12-24, 24-48, 0-48 hours. Feces was analyzed over 2-3 time intervals (0-24 and 24-48 hours for mouse and rat; 0-24, 24-48, and 48-72 hours for male dogs; and 24-48, 48-72, and 72-96 hours for female dogs). In the human study, feces were analyzed for 0-48, 48-96, 96-144, 144-192, 192-288, 0-144, 144-288 and 0-288 hours. PK parameters for ^14C-labeled talarozole radioactivity was determined from the mean (mouse and rat) or individual (dog and human) plasma concentration versus time data. PK parameter values were determined by non-compartmental methods using WinNonlin™. • HPLC data for separations described in Example 1: • LC system: Waters 2695 Separations Module • Analytic column: C18 column, 4.6×150 mm, 3 μm • Flow rate: 1.0 mL/min • Mobile phase A: 2% HCOOH in H2O (pH 3.2) • Mobile phase B: CH3CN • Gradient: […]

[2] = Pharmacokinetics of radioactivity in plasma after oral 14C-labeled talarozole, mouse; conditions: single oral 5 mg/kg; for AUC0-t: 0-48 h
Description: as §1
as §2, with “Metabolite characterization and identification were accomplished by LC/MS (Finnigan MAT LCQ in positive or negative ESI mode) in conjunction with an appropriate radioactive monitor (RAM).” left out

[3] = Excretion of radioactivity (mass balance), dog; conditions: 0-192 h, oral 5 mg/kg; for % in Urine (percent of dose recovered, total radioactivity) / % in Feces (percent of dose recovered, total radioactivity): 5 mg/kg
Description: as §1, §2

[4] = listed as 14C-labeled talarozole
[5] = female, listed as 14C-Talarozole
[6] = female, listed as 14C-labeled talarozole

## CCC(CC)[C@H](c1ccc(Nc2nc3ccccc3s2)cc1)n1cncn1 [Talarozole, (R)—N-[4-[2-ethyl-1-(1H-1,2,4-triazole-1-yl)butyl]phenyl]-2-benzothiazolamine]
[1]
  Total % Recovered: 87.7%
[1]; listed as 14C-Talarozole
  % in Feces (percent of dose recovered, total radioactivity): 80.36%
  % in Urine (percent of dose recovered, total radioactivity): 7.29%
[1]; [4]
  % in Feces (percent of dose recovered, total radioactivity): 72.2%
  % in Urine (percent of dose recovered, total radioactivity): 7.3%
[2]; female
  AUC0-∞: 6767 hr-ng equiv/g
  AUC0-t: 6632 hr-ng equiv/g
[2]; male
  AUC0-∞: 10276 hr-ng equiv/g
  AUC0-t: 10215 hr-ng equiv/g
[3]; listed as 14C-Talarozole
  % in Urine (percent of dose recovered, total radioactivity): 4.13 M %
[3]; [4]
  % in Urine (percent of dose recovered, total radioactivity): 4.1%
[3]; female
  % in Cage Rinse (percent of dose recovered): 0.5%
  Total % Recovered: 92.4%
[3]; [5]
  % in Feces (percent of dose recovered, total radioactivity): 89.00 F %
  % in Urine (percent of dose recovered, total radioactivity): 2.89 F %
[3]; [6]
  % in Feces (percent of dose recovered, total radioactivity): 89.0%
  % in Urine (percent of dose recovered, total radioactivity): 2.9%
[3]; male
  % in Cage Rinse (percent of dose recovered): 0.8%
  Total % Recovered: 93.6%
[3]; male, listed as 14C-Talarozole
  % in Feces (percent of dose recovered, total radioactivity): 88.66 M %
[3]; male, listed as 14C-labeled talarozole
  % in Feces (percent of dose recovered, total radioactivity): 88.7%
